# Measurements: patent EP2348131A1, “Low levels of cytidine deaminase as a marker for genetic predisposition to develop cancer” (Institut Curie, priority 2010, dated 2011)
# What was measured:
# BS cells = experiment: Sister chromatid exchange assay in BS cells cultured with deoxynucleosides; type: cell-based, human; conditions: BS cells (BS-GFP), 25 µM dU or T in culture medium, 2 x 48 h
# Protocol: The BS SV40-transformed fibroblast cell line GM08505B was cultured as previously described (Dutertre S et al., Oncogene 19, 2731-8, 2000). BS-GFP-BLM cells were obtained by transfecting BS GM08505B cells with an empty EGFP-C1 vector (Clontech, Mountain View, CA), or a EGFP-C1 vector containing the full length BLM cDNA (Eladad et al., Hum Mol Genet 14, 1351-65, 2005), respectively, using JetPEI reagent (Ozyme). After 48 hr, selection with 800 to 1600 µg/ml of G418 (Invitrogen) was applied. Individual colonies were isolated and maintained in DMEM supplemented with 800 µg/ml G418.
# All cell lines were cultured in DMEM with 10% fetal calf serum (PAN laboratories) either not dialyzed (Lot P282710) or dialyzed (Lot P5940309) for nucleoside complementation experiments and dNTP assays. […]
# After treatment, cells were transferred to slides and cultured in the presence of 10 µM 5-bromodeoxyuridine (Sigma) at 37°C, under an atmosphere containing 5% CO2. After 40 hours, Colchicine (Sigma) was added to a final concentration of 0.1 µg/ ml for 1 hour. Cells were incubated in hypotonic solution (1:6 (vol/vol) FCS-distilled water) and fixed with 3:1 (vol/vol) methanol-acetic acid. […] Metaphases were captured with a SONY DXC 930 P camera and SCEs or chromosomal aberrations were analyzed.
# [1] = system: BLM-complemented BS cells; experiment: Sister chromatid exchange assay in BLM-complemented BS cells; type: cell-based, human; conditions: BLM-complemented BS cells (BS-GFP-BLM), 25 mM dU or T in culture medium, 2 x 48 h
# Protocol: HeLa cells were used, as previously described (Dutertre S et al., Oncogene 19, 2731-8, 2000). HEK293 cells were cultured as HeLa cells. HeLaV cells and HeLashBLM cells, HEK293V and HEK293shBLM were obtained by transfecting HeLa and HEK cells with an empty pSM2 vector or a pSM2 vector encoding a short hairpin RNA sequence directed against BLM (Open Biosystems, clone V2HS-89234), respectively, using JetPEI reagent (Ozyme) according to the manufacturer's instructions. After 48 hours, selection with 1 to 5 µg/ ml puromycin (Invivogen) was applied for HeLa cells and with 7 to12 µg/ml puromycin for HEK cells. Individual colonies were isolated and maintained in growth medium containing 0.5 µg/ ml puromycin for Hela cells or 10µg/ml puromycin for HEK cells. For siRNAs transient transfection assays, 3-4 x 10^5 cells were seeded in 3 ml of medium in each well of a six-well plate. […]
# After treatment, cells were transferred to slides and cultured in the presence of 10 µM 5-bromodeoxyuridine (Sigma) at 37°C, under an atmosphere containing 5% CO2. […] Metaphases were captured with a SONY DXC 930 P camera and SCEs or chromosomal aberrations were analyzed.
SMILES,SCEs frequency (BS cells),SCEs frequency [1]
"Cc1cn([C@H]2C[C@H](O)[C@@H](CO)O2)c(=O)[nH]c1=O [T, thymidine]",significant decrease,did not affect
"O=c1ccn([C@H]2C[C@H](O)[C@@H](CO)O2)c(=O)[nH]1 [dU, deoxyuridine]",significant decrease,did not affect
